Measured values taken from patent US20250188091A1, “PYRIDONE COMPOUND HAVING INTEGRASE INHIBITORY ACTIVITY AND PHARMACEUTICAL USE THEREOF” (priority 2021, published 2025).

Key:
Format in all cases: cell-based
[1] = system: WT (wild type) pseudovirus; test: Pseudovirus-based assay of anti-HIV-1 activity, WT strain; details: HEK-293T, 72 h
Experimental: (§1) The inhibitory activity against pseudoviruses containing common clinical mutation sites of HIV-1 integrase (G140S/Q148R, Q148R/N155H, E138K, Q148H, R263K and Y143R/Q148H) was determined.
(§2) Preparation of pseudovirus: Using the lentiviral plasmid pNL4-3-Luc-RE (HedgehogBio) as the backbone, an integrase point mutation plasmid was constructed. HEK293T cells (ATCC) were seeded in a 6-well plate at 5×10^5 cells per well. After 24 hours, when the cell density reached 60% to 80%, transfection was performed. pNL4-3-Luc-R-E- or pNL4-3-Luc-R-E--IN-mutant plasmid and lentivirus packaging plasmid pMD2.G (Beijing Zoman Bio) were added to the transfection reagent in a certain proportion. Cell transfection was performed according to the instructions of transfection reagent PEI25K (Maokang Biotechnology). After 48 hours, the supernatant was collected, centrifuged at 3000 rpm for 5 minutes, filtered with a 0.45 μm microporous membrane, aliquoted, and stored at −80° C. for later use. In HEK293T cells, the pseudovirus titer was determined based on luciferase activity.
(§3) Determination of antiviral activity of compounds: In a 96-well V-bottom plate, the compound to be tested was diluted with DMSO semi-logarithmically, and a compound solution 4 times the final concentration was prepared for later use. According to the results of different virus titrations, the virus was diluted with complete culture medium for later use. HEK293T cells were digested with trypsin to obtain a cell suspension of 2×10^5/mL. 50 µl of compound diluent, 50 µl of virus diluent and 100 µl of cell suspension were added successively to a 96-well flat-bottomed plate. The final concentration of the compound was 1000 nM to 0.1 nM. The 96-well plate was incubated in a 37° C., 5% CO2 incubator. After 72 hours, 100 µL of culture supernatant was pipetted out carefully from each well of the 96-well plate, 25 µL of Steady-Glo detection reagent (Promega, Cat #E2550) was added to each well in the dark, and then assayed on a machine (Tecan, Type #Spark).

[2] = system: HIV-1 integrase Q148H pseudovirus; test: Pseudovirus-based assay of anti-HIV-1 activity, Q148H strain; details: HEK-293T, 72 h
Experimental: as §1, §2, §3

[3] = system: HIV-1 integrase G140S/Q148R pseudovirus; test: Pseudovirus-based assay of anti-HIV-1 activity, G140S/Q148R strain; details: HEK-293T, 72 h
Experimental: as §1, §2, §3

[4] = system: HIV-1 integrase E138K pseudovirus; test: Pseudovirus-based assay of anti-HIV-1 activity, E138K strain; details: HEK-293T, 72 h
Experimental: as §1, §2, §3

[5] = system: HIV-1 integrase R263K pseudovirus; test: Pseudovirus-based assay of anti-HIV-1 activity, R263K strain; details: HEK-293T, 72 h
Experimental: as §1, §2, §3

[6] = system: HIV-1 integrase Q148R/N155H pseudovirus; test: Pseudovirus-based assay of anti-HIV-1 activity, Q148R/N155H strain; details: HEK-293T, 72 h
Experimental: as §1, §2, §3

[7] = system: HIV-1 integrase Y143R/Q148H pseudovirus; test: Pseudovirus-based assay of anti-HIV-1 activity, Y143R/Q148H strain; details: HEK-293T, 72 h
Experimental: as §1, §2, §3

[8] = Test of cytotoxicity of the compound (MT-4 cells, XTT); details: human
Experimental: 1) Test of cytotoxicity of the compound: The test compound was evaluated using a starting concentration of 100 nM and five serial half-log dilutions. Each compound was present in the test medium at a concentration 2 folds of the final desired test concentration. The compound was diluted to 1 mM in DMSO. The compound was then diluted to 200 nM in a drug dilution tube containing 998 μL of test medium (adding 2 μL of 1 mM stock). […] of the 200 nM solution was transferred into 680 μL of the test medium (half-log dilution), and a total of five serial dilutions were carried out. 100 microliters (100 μL) of the solution of each concentration was added to duplicate wells for cytotoxicity evaluation, and each concentration was added to one well for colorimetric evaluation.
(§4) Cell culture: MT-4 cells were passaged in a T-75 flask before use in the antiviral assay. On the day before the assay, cells were passaged in aliquots at a 1:2 ratio to ensure that they were in the exponential growth phase at the time of infection. Total cells and viable cells were quantified using a hemocytometer and trypan blue dye. The proportion of viable cells used for the assay was greater than 95%. The cells were resuspended in tissue culture medium at 5×10^4 cells per milliliter, and the resulting suspension was added to a drug-containing microtiter plate in a volume of 50 μL.
(§5) Evaluation of the efficacy and toxicity of the compound with XTT: After culturing for six days in a 37° C., 5% CO2 incubator, tetrazolium dye XTT (2,3-bis(2-methoxy-4-nitro-5-sulfophenyl)-5-[(phenylamino)carbonyl]-2H-tetrazolium hydroxide) was added to the cell culture plate to conduct the test. The XTT solution was a 1 mg/ml RPMI1640 stock solution prepared on the same day. Phenazine methyl sulfate (PMS) solution at a concentration of 0.15 mg/ml was prepared in PBS, and stored in the dark at −20° C. XTT/PMS stock solution was prepared before use by adding 40 μl of PMS per milliliter of XTT solution. […] of XTT/PMS was added to each well of the plate, and the plate was re-incubated for 4 hours at 37° C. The plate was sealed with adhesive plate sealant, and gently shaked or inverted several times to mix the soluble formazan product. The absorbance was read at 450/650 nm.

[9] = system: human immunodeficiency virus type 1 IIIB strain (HIV-1IIIB); test: Cell protection assay against HIV infection (MT-4 cells, XTT)
Experimental: The protective effect of the test compound on MT-4 cells infected by human immunodeficiency virus type 1 IIIB strain (HIV-1IIIB) at different concentrations was evaluated.
The test compound was dissolved in DMSO at a concentration of 10 mM and stored at −20° C.
2) Test of the anti-HIV-1 IIIB infection activity of the compound: A starting concentration of 10 nM was used, and five serial five-fold dilutions were carried out on the compound. Each compound was present in the test medium at a concentration 2 folds of the final desired test concentration. 100 microliters (100 μL) of the solution of each concentration was added to triplicate wells for efficacy evaluation, and each concentration was added one well for colorimetric evaluation. AZT was purchased from Sigma Aldrich (St. Louis, MO, USA), and evaluated as a control compound in the antiviral assay.
as §4
Virus preparation: The virus used for this assay was lymphotropic virus strain HIV-1IIIB. The viruses were amplified in CEM-SS cells for the preparation of virus stock solution. The pre-titered virus aliquot tube was taken from the refrigerator (−80° C.), and slowly thawed to room temperature in a biosafety cabinet. The viruses were diluted in the tissue culture medium. 50 μl of the diluted virus would produce 85% to 95% cell killing 6 days after infection. 50 μL of the diluted virus was added immediately to the microtiter plate containing cells and drugs.
as §5

SMILES	EC50 [1] [nM]	EC90 [1] [nM]	EC50 [2] [nM]	EC90 [2] [nM]	EC50 [3] [nM]	EC90 [3] [nM]	EC50 [4] [nM]	EC90 [4] [nM]	EC50 [5] [nM]	EC90 [5] [nM]	EC50 [6] [nM]	EC90 [6] [nM]	EC50 [7] [nM]	EC90 [7] [nM]	CC50 at 6 days [8] [nM]	EC50 ([9]; Human immunodeficiency virus 1, IIIB, MT4, 144 h) [nM]	CC50/EC50 ([9]; MT-4 cells, HIV-1IIIB)
Cc1nnc(C(=O)NC(C)(C)c2nc(C(=O)NCc3ccc(F)cc3)c(O)c(=O)n2C)o1 [Raltegravir, raltegravir]	5.5	60.7	214	> 1000	> 1000	> 1000	8.1	46.2	7.1	68	> 1000	> 1000	> 1000	> 1000	–	–	–
O=C(NCc1ccc(F)cc1F)c1cn2c(c(O)c1=O)C(=O)N1[C@@H](C3CC3)CO[C@@H]1C2 [Compound 1]	3.3	29.1	15.9	105	244	> 1000	5.1	27.1	6.5	58.3	611	> 1000	21.3	193	> 100	3.12	>32.1
